Each structure is given as a SMILES string.

Experiment [1] concerns the target tau fibrils (phosphorylated tau-441 (2N4R)) (Homo sapiens, UniProt P10636). The experiment can be described thus: Binding studies with tau fibrils (fluorescence, no separation). The note with it: 0.85 μM tau fibrils, 2 hours; Ex 360 nm, Em 535 nm. How it is done: Lyophilized tau-441 (2N4R) was dissolved in buffer containing 40 mM HEPES, 5 mM EGTA, 3 mM MgCl2, pH 7.5. Tau was phosphorylated with GSK-3b in the presence of 2 mM ATP at 30° C. for 40 hours. Tau was used at 30-75 μM concentration, and GSK-3b was used at 0.02-0.08 U/pmol of tau. SDS PAGE gel was run to confirm the phosphorylation of tau (FIG. 8).
To make fibrils, the phosphorylated tau was reacted with arachidonic acid (ARA). The p-tau was diluted in 10 mM HEPES, 1 mM EDTA, 5 mM DTT and 150 mM NaCl at pH-7.6 to final concentration of 32 μM and ARA at 37 times molar excess of tau was added. The mixture was incubated for 2 days at 37° C. for 2 days. Fresh DTT was supplemented daily. The oligomers formed were used as seeds for fibril formation. 8 μM of tau seeds were used to form fibrils with 30 μM p-tau in 10 mM HEPES, 1 mM EDTA, 5 mM DTT and 150 mM NaCl at pH-7.6. ARA was used at 37 times molar excess over p-tau monomer and incubated at 37° C. for 2 days. Fresh DTT was added every day.
Different dilutions of p-FTAA molecule were added and mixed with 0.85 μM of tau fibrils and incubated for 2 hours. The mixture was assayed as is without separation of bound and unbound fibrils. Excitation at 360 nm and emission at 535 nm was used for detection of p-FTAA binding to tau fibrils.

In experiment [2] the target is α-Synuclein fibrils (Homo sapiens, UniProt P37840). Kind of experiment: Binding studies with α-Synuclein fibrils (fluorescence of unbound fraction). The conditions noted are these: 5 μM α-Synuclein fibrils, 2 hours incubation; read-out: dissociation constant, Kd. How it is done:
Different dilutions of Conjugate A liposomes or p-FTAA were added and mixed with 5 μM of α-Synuclein fibrils and incubated for 2 hours. The mixture was centrifuged at 21000 g for 5 mins. The supernatant was removed and assayed for fluorescence of p-FTAA that was unbound to the fibrils. Excitation of 405 nm and emission of 574 nm emission was used. A standard curve from known concentrations of liposomes or pFTAA was made. The bound fraction was calculated as the difference between the total pFTAA or pFTAA-liposomes that was incubated and the unbound fraction. […] A dissociation constant of 3 nM was determined for the p-FTAA molecule (FIG. 7B).

Chain of tau fibrils (phosphorylated tau-441 (2N4R)) (P10636 1-441 isoform P10636-8): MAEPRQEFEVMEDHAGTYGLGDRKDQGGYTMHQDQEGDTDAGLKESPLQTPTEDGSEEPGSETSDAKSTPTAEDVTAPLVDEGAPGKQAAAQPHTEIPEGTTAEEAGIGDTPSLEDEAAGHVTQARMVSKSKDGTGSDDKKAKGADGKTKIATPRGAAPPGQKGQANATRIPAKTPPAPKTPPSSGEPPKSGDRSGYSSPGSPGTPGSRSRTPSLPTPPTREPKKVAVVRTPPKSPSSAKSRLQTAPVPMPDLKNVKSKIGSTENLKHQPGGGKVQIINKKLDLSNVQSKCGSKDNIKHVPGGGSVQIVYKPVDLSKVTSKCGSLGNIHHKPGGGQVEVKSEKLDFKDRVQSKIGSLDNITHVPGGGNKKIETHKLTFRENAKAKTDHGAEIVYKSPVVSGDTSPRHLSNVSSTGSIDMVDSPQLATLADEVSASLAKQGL

For `O=C(O)Cc1cc(-c2ccc(C(=O)O)s2)sc1-c1ccc(-c2sc(-c3ccc(C(=O)O)s3)cc2CC(=O)O)s1` [p-FTAA, pentameric formyl thiophene acetic acid], in experiment [1], the “fluorescence with tau fibrils in comparison to p-FTAA only” value is given as “increase in fluorescence”. Besides, the Kd (in general, the constant that tells how readily two partners part at equilibrium) in experiment [2] was 3 nM.

These data come from patent publication US20200261605A1, “FUNCTIONALIZED LIPOSOMES FOR IMAGING MISFOLDED PROTEINS” (ALZECA BIOSCIENCES, LLC, priority 2019, published 2020).
